The values below come from patent publication US6369088B2, “Substituted 3-phenyl-5-alkoxy-1,3,4-oxadiazol-2-ones, their preparation and their use as pharmaceuticals” (Aventis Pharma Deutschland GmbH, priority 2000, dated 2002).

In data set [1] the target is T1, hormone-sensitive lipase (HSL) (Rattus norvegicus, UniProt P15304).
T1 construct: Isolated rat fat cells were obtained from epididymal adipose tissue; from tissue; host or cells: rat epididymal adipose tissue (isolated fat cells, Wistar rats)
T1 sequence (P15304 1-768 isoform P15304-2): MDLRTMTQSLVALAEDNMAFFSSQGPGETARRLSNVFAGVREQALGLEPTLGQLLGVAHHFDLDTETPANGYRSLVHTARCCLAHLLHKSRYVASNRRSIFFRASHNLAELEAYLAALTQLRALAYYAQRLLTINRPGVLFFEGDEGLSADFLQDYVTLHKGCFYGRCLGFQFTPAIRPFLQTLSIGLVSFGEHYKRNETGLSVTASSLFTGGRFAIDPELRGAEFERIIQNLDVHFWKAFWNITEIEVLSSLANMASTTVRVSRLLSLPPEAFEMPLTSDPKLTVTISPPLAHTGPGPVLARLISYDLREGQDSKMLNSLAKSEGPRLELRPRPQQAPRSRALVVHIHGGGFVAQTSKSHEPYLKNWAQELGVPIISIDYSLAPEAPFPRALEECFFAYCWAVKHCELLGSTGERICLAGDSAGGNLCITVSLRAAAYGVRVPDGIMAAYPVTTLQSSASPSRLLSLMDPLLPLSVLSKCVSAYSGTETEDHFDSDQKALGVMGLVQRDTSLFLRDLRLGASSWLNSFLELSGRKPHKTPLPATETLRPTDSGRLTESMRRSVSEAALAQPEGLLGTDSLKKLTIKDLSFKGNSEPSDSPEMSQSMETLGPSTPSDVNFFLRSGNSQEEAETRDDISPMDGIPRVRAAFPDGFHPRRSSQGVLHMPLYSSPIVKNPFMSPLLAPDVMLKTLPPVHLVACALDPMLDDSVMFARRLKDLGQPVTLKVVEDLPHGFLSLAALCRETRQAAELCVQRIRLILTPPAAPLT
Description: HSL enzyme assay: [3H]trioleoylglycerol hydrolysis by partially purified HSL. It counts as biochemical. The protocol:
The effect of the compounds of the invention on HSL was tested using the following enzyme assay system:
Preparation of Partially Purified HSL:
The fat cells from 10 rats were washed three times by flotation with 50 ml each time of homogenization buffer ([…] tris/HCl, pH 7.4, 0.25 M sucrose, 1 mM EDTA, 1 mM DTT, 10 μg/ml leupeptin, 10 μg/ml antipain, 20 μg/ml pepstatin) and finally taken up in 10 ml of homogenization buffer. The fat cells were homogenized in a Teflon-in-glass homogenizer (Braun-Melsungen) by 10 strokes at 1500 rpm and 15° C. The homogenate was centrifuged (Sorvall SM24 tubes, 5000 rpm, 10 min, 4° C.). The subnatant between the fatty layer at the top and the pellet was removed and the centrifugation was repeated. The subnatant resulting therefrom was recentrifuged (Sorvall SM24 tubes, 20000 rpm, 45 min, 4° C.). […] After the mixture had been incubated at 4° C. for 60 min (shaking at 15-min intervals), it was centrifuged (Sorvall SM24 tubes, 3000 rpm, 10 min, 4° C.). The supernatant was adjusted to pH 5.2 by adding glacial acetic acid and incubated at 4° C. for 30 min. The precipitates were collected by centrifugation (Sorvall SS34, 12000 rpm, 10 min, 4° C.) and suspended in 2.5 ml of 20 mM tris/HCl, pH 7.0,1 mM EDTA, 65 mM NaCl, 13% sucrose, 1 mM DTT, 10 μg/ml leupeptin/pepstatin/antipain. The suspension was dialyzed against 25 mM tris/HCl, pH 7.4, 50% glycerol, 1 mM DTT, 10 μg/ml leupeptin, pepstatin, antipain at 4° C. overnight and then loaded onto a hydroxy apatite column (0.1 g per 1 ml of suspension, equilibrated with 10 mM potassium phosphate, pH 7.0, 30% glycerol, 1 mM DTT). The column was washed with four volumes of equilibration buffer at a flow rate of 20 to 30 ml/h. The HSL was eluted with one volume of equilibration buffer containing 0.5 M potassium phosphate, and then dialyzed (see above) and concentrated 5- to 10-fold by ultrafiltration (Amicon Diaflo PM 10 filter) at 4° C. The partially purified HSL can be stored at −70° C. for 4 to 6 weeks.
To prepare the substrate, 25-50 μCi of [^3H]trioleoylglycerol (in toluene), 6.8 μmol of unlabeled trioleoylglycerol and 0.6 mg of phospholipids (phosphatidylcholine/phosphatidylinositol 3:1 w/v) were mixed, dried with N2 and then taken up in 2 ml of 0.1 M KPi (pH 7.0) by ultrasonic treatment (Branson 250, microtip, setting 1-2, 2×1 min at 1-min intervals). After addition of 1 ml of KPi and renewed ultrasonic treatment (4×30 sec on ice in 30-sec intervals), 1 ml of 20% BSA (in KPi) was added (final concentration of trioleoylglycerol 1.7 mM). For the reaction, 100 μl of substrate solution were pipetted into 100 μl of HSL solution (HSL prepared as above, diluted in 20 mM KPi, pH 7.0, 1 mM EDTA, 1 mM DTT, 0.02% BSA, 20 μg/ml pepstatin, 10 μg/ml leupeptin) and incubated at 37° C. for 30 min. […] After phase separation, one equivalent of the upper phase (1 ml) was removed and the radioactivity was determined by liquid scintillation measurement.
Substances were normally tested in four independent mixtures. The inhibition of the HSL enzymatic activity by a test substance was determined by comparison with an uninhibited control reaction. The IC50 was calculated via an inhibition plot with at least 10 concentrations of the test substance. The data was analyzed using the software package GRAPHIT, Elsevier-BIOSOFT.

The mark [2] stands for this setting: partially purified HSL from rat fat cells, [3H]trioleoylglycerol substrate, 37° C., 30 min, read-out: IC50.

The term IC50 denotes the midpoint of a concentration-inhibition curve. A word on the melting point: it is the temperature of the solid-liquid transition.

Where a name gives a salt, the structure may show the parent alone. Read-outs that look alike come from different tables or passages of the source.

Take “5-Methoxy-3-[3-[(3-trifluoromethylphenoxy)benzylamino]phenyl]-3H-[1,3,4]oxadiazol-2-one trifluoroacetate [Example 166]”: in data set [1] (setting [2]), the IC50 came out at 200 nM.

Molecule `COc1nn(-c2cccc(OCc3ccc(F)cc3)c2[N+](=O)[O-])c(=O)o1` [Example 22, 5-Methoxy-3-(3-(4-fluorobenzyloxy)-2-nitrophenyl)-3H-(1,3,4)oxadiazol-2-one] displayed a melting point of 99 °C. The IC50 in data set [1] (setting [2]) worked out at 1000 nM.

For `COc1nn(-c2ccc(NC(=O)OCc3ccccc3Cl)c(C)c2)c(=O)o1` [Example 62, 5-Methoxy-3-(3-methyl-4-(2-chlorobenzyloxycarbonylamino)phenyl)-3H-(1,3,4)oxadiazol-2-one], the melting point came to 161 °C. Moreover, the IC50 in data set [1] (setting [2]) came out at 300 nM.

As for `COc1nn(-c2ccc(NCc3ccc(OCc4ccccc4)cc3)cc2)c(=O)o1` [Example 136, 3-[4-(4-Benzyloxybenzylamino)phenyl]-5-methoxy-3H-[1,3,4]oxadiazol-2-one trifluoroacetate], the IC50 in data set [1] (setting [2]) was 500 nM.

As for `CCCCCCCc1ccc(C(=O)Nc2ccc(-n3nc(OC)oc3=O)cc2)cc1` [Example 33, 5-Methoxy-3-(4-(4-heptylbenzoylamino)phenyl)-3H-(1,3,4)oxadiazol-2-one], the melting point worked out at 155 °C. Also, in data set [1] (setting [2]), the IC50 worked out at 200 nM.

The molecule `COc1nn(-c2ccc(NC(=O)OCc3ccccc3)cc2C)c(=O)o1` [Example 65, 5-Methoxy-3-(2-methyl-4-benzyloxycarbonylaminophenyl)-3H-(1,3,4)oxadiazol-2-one] came in with a melting point of 112 °C. Further, in data set [1] (setting [2]), the IC50 turned out to be 1000 nM.

For the molecule `COc1nn(-c2ccc(NCC3CCCCC3)cc2)c(=O)o1` [Example 139, 3-[4-(Cyclohexylmethylamino)phenyl]-5-methoxy-3H-[1,3,4]oxadiazol-2-one], the IC50 in data set [1] (setting [2]) is 400 nM.

`CCCCCCCC(=O)Nc1ccc(-n2nc(OC)oc2=O)cc1C` [Example 32, 5-Methoxy-3-(4-octanoylamino-3-methylphenyl)-3H-(1,3,4)oxadiazol-2-one]: the melting point was 110 °C. In addition, the IC50 in data set [1] (setting [2]) was 3000 nM.

On to `COc1nn(-c2ccc(NC(C)=CC(C)=O)c(C)c2)c(=O)o1` [Example 53, 5-Methoxy-3-(4-(4-oxopent-2-en-2-ylamino)-3-methylphenyl)-3H-(1,3,4)oxadiazol-2-one], for which the melting point stood at 143 °C. Moreover, the IC50 in data set [1] (setting [2]) is 1000 nM.

For `COc1nn(-c2cccc(NC(=O)Nc3c(OC)cccc3OC)c2)c(=O)o1` [Example 128, 1-(2,6-Dimethoxyphenyl)-3-[3-(5-methoxy-2-oxo-[1,3,4]oxadiazol-3-yl)phenyl]urea], the IC50 in data set [1] (setting [2]) came to 600 nM.

The molecule `CCOc1nn(-c2ccc(NC(=O)OCc3ccccc3)c(C)c2)c(=O)o1` [Example 74, 5-Ethoxy-3-(3-methyl-4-benzyloxycarbonylaminophenyl)-3H-(1,3,4)oxadiazol-2-one] had a melting point of 94 °C. Further, the IC50 in data set [1] (setting [2]) was 40 nM.

As to `COc1nn(-c2ccc(NC(=O)OCc3ccccc3)c(OCc3ccc(F)cc3)c2)c(=O)o1` [Example 60, 5-Methoxy-3-(3-(4-fluorobenzyloxy)-4-benzyloxycarbonylaminophenyl)-3H-(1,3,4)oxadiazol-2-one], in data set [1] (setting [2]), the IC50 turned out to be 200 nM.

In the case of `COc1nn(-c2ccc(NC(=O)OCc3ccccc3)c(C)c2)c(=O)o1` [Example 41, 5-Methoxy-3-(4-(benzyloxycarbonylamino)-3-methylphenyl)-3H-(1,3,4)oxadiazol-2-one], the IC50 in data set [1] (setting [2]) came out at 100 nM.

With `COc1nn(-c2cccc(NCc3ccccc3)c2)c(=O)o1` [Example 58, 5-Methoxy-3-(3-benzylaminophenyl)-3H-(1,3,4)oxadiazol-2-one], the IC50 in data set [1] (setting [2]) turned out to be 800 nM.

As for `COc1nn(-c2ccc(NC(=O)c3ccccc3F)cc2)c(=O)o1` [Example 97, 2-Fluoro-N-[4-(5-methoxy-2-oxo-[1,3,4]oxadiazol-3-yl)phenyl]-benzamide], in data set [1] (setting [2]), the IC50 was 30 nM.

As to `COc1nn(-c2ccc(NC(=O)c3ccc(C(C)(C)C)cc3)cc2)c(=O)o1` [Example 69, 5-Methoxy-3-(4-(4-t-butylbenzoylamino)phenyl)-3H-(1,3,4)oxadiazol-2-one], the IC50 in data set [1] (setting [2]) stood at 30 nM.

On to `CCCCCCCCCCC(=O)Nc1ccc(-n2nc(OC)oc2=O)cc1` [Example 107, Undecanoic acid [4-(5-methoxy-2-oxo-[1,3,4]oxadiazol-3-yl)phenyl]amide], for which, in data set [1] (setting [2]), the 50% inhibitory concentration (IC50) came out at 120 nM.

On to `CCCCCCOc1ccc(CNc2ccc(-n3nc(OC)oc3=O)cc2)cc1` [Example 142, 3-[4-(4-Hexyloxybenzylamino)phenyl]-5-methoxy-3H-[1,3,4]oxadiazol-2-one trifluoroacetate], for which the IC50 in data set [1] (setting [2]) was determined as 200 nM.

`COc1nn(-c2ccc(NCc3ccc(C#N)cc3)cc2)c(=O)o1` [Example 130, 4-[[4-(5-Methoxy-2-oxo-[1,3,4]oxadiazol-3-yl)phenylamino]methyl]-benzonitrile tri-fluoroacetate] displayed an IC50 in data set [1] of 500 nM.

With `CCCCCC=CCCCNc1cccc(-n2nc(OC)oc2=O)c1` [Example 171, 3-(3-Dec-4-enylaminophenyl)-5-methoxy-3H-[1,3,4]oxadiazol-2-one trifluoroacetate], the IC50 in data set [1] (setting [2]) came to 600 nM.

With `CCOc1ccccc1NC(=O)Nc1ccc(-n2nc(OC)oc2=O)cc1` [Example 152, 1-(2-Ethoxyphenyl)-3-[4-(5-methoxy-2-oxo-[1,3,4]oxadiazol-3-yl)phenyl]urea], in data set [1] (setting [2]), the IC50 was 200 nM.

On to `COc1nn(-c2ccc(NS(=O)(=O)c3ccc(OC)c(OC)c3)cc2)c(=O)o1` [Example 92, 3,4-Dimethoxy-N-[4-(5-methoxy-2-oxo-[1,3,4]oxadiazol-3-yl)-phenyl]benzenesulfon-amide], for which the IC50 in data set [1] (setting [2]) was 250 nM.

Consider `COc1nn(-c2ccc(NC(=O)Cc3ccc(Cl)cc3)cc2)c(=O)o1` [Example 30, 5-Methoxy-3-(4-(4-chlorophenylacetylamino)phenyl)-3H-(1,3,4)oxadiazol-2-one], for which the IC50 in data set [1] (setting [2]) was 1000 nM.

With `COc1nn(-c2ccc(NC(=O)CCCC(=O)c3ccccc3)cc2)c(=O)o1` [Example 116, 5-Oxo-5-phenylpentanoic acid [4-(5-methoxy-2-oxo-[1,3,4]-oxadiazol-3-yl)phenyl]amide], in data set [1] (setting [2]), the IC50 is 100 nM.

For `COc1nn(-c2ccc(-n3c(C)ccc3C)c(C)c2)c(=O)o1` [Example 54, 5-Methoxy-3-(4-(2,5-dimethylpyrrol-1-yl)-3-methylphenyl)-3H-(1,3,4)oxadiazol-2-one], in data set [1] (setting [2]), the IC50 came out at 1000 nM.
